Experimental findings from patent publication US7265152B2 (ViroPharma Incorporated, priority 2002, dated 2007) are described below.

pEC50, pIC50: −log10 of the molar value. Read-outs that look alike come from different tables or passages of the source. Bounds are passed on as bounds.

The term pIC50 denotes −log10 of the IC50, conventionally taken in molar units.

Experiment [1] concerns HCV replicon (BB7 sequence) in Huh-7-Clone A cells. The experiment in a line: HCV replicon assay: ELISA of NS5A protein in replicon-containing cells (Inhibition of Viral RNA Replication). To be noted: for pEC50: read-out: Replicon. It counts as cell-based. An outline of the steps: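 Huh-7-Clone A cells carrying subgenomic BB7 HCV replicon (G418-selectable) incubated 72 h with compound. NS5A protein quantified by cell ELISA: glutaraldehyde fixation, anti-NS5A monoclonal plus HRP secondary, TMB read at OD 650 nm. EC50 derived from 8-point serial dilution dose curve.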
A general note: A replicon is a self-replicating genome or part of one, used to study replication in cells.

For experiment [2], the target named is T1, HCV NS5B (Hepatitis C virus genotype 1b, UniProt Q9WMX2).
T1 construct: fusion protein, of which the carboxyl terminal 21 amino acids were removed to enhance its solubility; His tag (GSHHHHHH); made in house; host or cells: E. coli
The experiment is described as follows: Inhibition of viral RNA-dependent RNA polymerase (RdRp), in vitro biochemical assay. Also noted: species or system HCV genotype 1b virus (BB7). To be noted: read-out: HCV pol-BB7 IC50. An outline of the steps: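 Purified recombinant NS5B from a genotype 1b consensus (BB7), His-tagged, E. coli-expressed, with the C-terminal 21 residues deleted. Inhibition of RdRp activity in vitro was measured, and IC50 is the concentration giving 50% inhibition.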

Where [3] appears, read: Hepatitis C virus, ranges of EC50 in HCV replicon assay.
The mark [4] stands for this setting: Hepatitis C virus, HCV replicon assay, ranges of EC50.
Setting [5] is: HCV NS5B RdRp, BB7, class symbols A-D.
The mark [6] stands for this setting: Hepatitis C virus, HCV replicon, range of EC50.
Where [7] appears, read: HCV NS5B RdRp, BB7, reported as range class.
Where [8] appears, read: Hepatitis C virus, Huh-7-Clone A, NS5A ELISA, 72-hour incubation, ranges of EC50.
Where [9] appears, read: purified His-tagged NS5B (BB7), carboxyl terminal 21 amino acids removed.
Where [10] appears, read: Hepatitis C virus, HCV replicon assay, ranges of 50% effective concentration (EC50).
Where [11] appears, read: HCV NS5B polymerase, BB7 (genotype 1b), values given as range classes A-D.

In the case of `CNC(=O)c1c(-c2ccc(F)cc2)oc2cc(-c3cncnc3)c(OC(C)C)cc12` [Example 147, 2-(4-Fluoro-phenyl)-5-isopropoxy-6-pyrimidin-5-y1-benzofuran-3-carboxylic acid mehtylamide], in experiment [1] (setting [3]), the pEC50 was above 5.00. For the same molecule, in experiment [2] (HCV NS5B RdRp, BB7 genotype 1b), the pIC50 is at least 6.30.
`CNC(=O)c1c(-c2ccc(F)cc2)oc2cc(N(C)S(C)(=O)=O)c(OCc3ccc4c(c3)C(=O)OC(C)(C)O4)cc12` [Example 329, 5-(2,2-Dimethyl-4-oxo-4H-benzo[1,3]dioxin-6-ylmethoxy)-2-(4-fluoro-phenyl)-6-(methanesulfonyl-methyl-amino)-benzofuran-3-carboxylic acid methylamide]: the pEC50 in experiment [1] (setting [4]) is above 6.00. In addition, the pIC50 in experiment [2] (setting [5]) is at least 6.30.
The corresponding values for `CNC(=O)c1c(-c2ccc(F)cc2)oc2cc(-c3c(C4CC4)noc3COC)c(OC)cc12` [Example 310, 6-(3-Cyclopropyl-5-methoxymethyl-isoxazol-4-yl)-2-(4-fluoro-phenyl)-5-methoxy-benzofuran-3-carboxylic acid methylamide] are above 6.00 and at least 6.30.
Regarding `CNC(=O)c1c(-c2ccc(F)cc2)oc2cc(N3CCCS3(=O)=O)c(OC(C)C)cc12` [Example 134, 6-(1,1-Dioxido-isothiazolidin-2-yl)-2-(4-fluoro-phenyl)-5-isopropoxy-benzofuran-3-carboxylic acid methylamide], the pEC50 in experiment [1] (setting [3]) is above 5.00. Further, in experiment [2] (HCV NS5B RdRp, BB7 genotype 1b), the pIC50 is 5.30 to 6.30.
With `CNC(=O)c1c(-c2ccc(F)cc2)oc2cc(N(CCOC)S(C)(=O)=O)c(OC)cc12` [Example 240, 2-(4-Fluoro-phenyl)-6-[methanesulfonyl-(2-methoxy-ethyl)-amino]-5-methoxy-benzofuran-3-carboxylic acid methylamide], the pEC50 in experiment [1] (setting [6]) was above 6.00. Besides, the pIC50 in experiment [2] (setting [7]) is at least 6.30.
On to `CNC(=O)c1c(-c2ccc(F)cc2)oc2cc(N)c(OC(C)C)cc12` [Example 16, 6-Amino-2-(4-fluoro-phenyl)-5-isopropoxy-benzofuran-3-carboxylic acid methylamide], for which the pEC50 in experiment [1] (setting [8]) is above 5.00. Also, the pIC50 in experiment [2] (setting [9]) was at least 6.30.
As for `CNC(=O)c1c(-c2ccccc2)oc2ccc(OCC(F)(F)F)cc12` [Example 11, 2-Phenyl-5-(2,2,2-trifluoro-ethoxy)-benzofuran-3-carboxylic acid methylamide], in experiment [1] (setting [8]), the pEC50 was above 4.52. Moreover, the pIC50 in experiment [2] (setting [9]) is below 4.52.
With `CNC(=O)c1c(-c2ccc(F)cc2)oc2cc(N3CCOCC3)c(OCc3ccc(C#N)cc3)cc12` [Example 213, 5-(4-Cyano-benzyloxy)-2-(4-fluoro-phenyl)-6-morpholin-4-yl-benzofuran-3-carboxylic acid methylamide], the pEC50 in experiment [1] (setting [6]) was above 5.00. In experiment [2] (setting [7]), the pIC50 was 5.30 to 6.30.
In the case of `CNC(=O)c1c(-c2ccc(F)cc2)oc2cc(-c3cn[nH]c3)c(OC(C)C)cc12` [Example 239, 2-(4-Fluoro-phenyl)-5-isopropoxy-6-(1H-pyrazol-4-yl)-benzofuran-3-carboxylic acid methylamide], the pEC50 in experiment [1] (setting [6]) was above 5.00. Further, in experiment [2] (setting [7]), the pIC50 was 4.52 to 5.30.
As to `CCOc1cc2c(C(=O)NC)c(-c3ccc(F)cc3)oc2cc1N1CCOCC1` [Example 166, 5-Ethoxy-2-(4-fluoro-phenyl)-6-morpholin-4-yl-benzofuran-3-carboxylic acid methylamide], the pEC50 in experiment [1] (setting [3]) was above 5.00. In addition, the pIC50 in experiment [2] (HCV NS5B RdRp, BB7 genotype 1b) is 5.30 to 6.30.
As to `CNC(=O)c1c(-c2ccc(N)cc2)oc2ccc(OC(C)C)cc12` [Example 99, 2-(4-Amino-phenyl)-5-isopropoxy-benzofuran-3-carboxylic acid methylamide], in experiment [1] (setting [3]), the pEC50 was above 4.52. The pIC50 in experiment [2] (HCV NS5B RdRp, BB7 genotype 1b) is 5.30 to 6.30.
As to `CNC(=O)c1c(-c2ccc(F)cc2)oc2cc(N(C)S(C)(=O)=O)c(OCC(=O)Nc3nccs3)cc12` [Example 415, 2-(4-Fluoro-phenyl)-6-(methanesulfonyl-methyl-amino)-5-(thiazol-2-ylcarbamoylmethoxy)-benzofuran-3-carboxylic acid methylamide], the pEC50 in experiment [1] (setting [10]) was above 6.00. Moreover, in experiment [2] (setting [11]), the pIC50 is at least 6.30.
Take `CNC(=O)c1c(-c2ccc(F)cc2)oc2cc(NS(C)(=O)=O)ccc12` [Example 243, 2-(4-Fluoro-phenyl)-6-methanesulfonylamino-benzofuran-3-carboxylic acid methylamide]: in experiment [1] (setting [6]), the pEC50 is above 5.00. In addition, the pIC50 in experiment [2] (setting [7]) is 5.30 to 6.30.
Turning to `CNC(=O)c1c(-c2ccccc2)oc2ccc(C#N)cc12` [Example 26, 5-Cyano-2-phenyl-benzofuran-3-carboxylic acid methylamide], the pEC50 in experiment [1] (setting [8]) was above 4.52. For the same molecule, in experiment [2] (setting [9]), the pIC50 is 4.52 to 5.30.
In the case of `CCN(c1cc2oc(-c3ccc(F)cc3)c(C(=O)NC)c2cc1OCc1ccc2c(c1)C(=O)OC(C)(C)O2)S(C)(=O)=O` [Example 294], in experiment [1] (Hepatitis C virus, read-out: Replicon (μM)), the EC50 was below 1 µM. In addition, the negative-log IC50 (pIC50) in experiment [2] (setting [5]) was at least 6.30.
For the molecule `CCCCOc1ccc2oc(-c3ccccc3)c(C(=O)NC)c2c1` [Example 60, 5-Butoxy-2-phenyl-benzofuran-3-carboxylic acid methylamide], the pEC50 in experiment [1] (setting [8]) was above 4.52. In addition, in experiment [2] (setting [9]), the pIC50 was 5.30 to 6.30.
The corresponding values for `CNC(=O)c1c(-c2ccc(OC)cc2)oc2ccc(OC)cc12` [Example 54, 5-Methoxy-2-(4-methoxy-phenyl)-benzofuran-3-carboxylic acid methylamide] are above 5.00 and 5.30 to 6.30.
For the molecule `CNC(=O)c1c(-c2ccc(F)cc2)oc2cc(N3CCOCC3)c(OCc3ccc(OC)cc3)cc12` [Example 30, 2-(4-Fluoro-phenyl)-5-(4-methoxy-benzyloxy)-6-morpholin-4-yl-benzofuran-3-carboxylic acid methylamide], in experiment [1] (setting [8]), the pEC50 is above 6.00. The pIC50 in experiment [2] (setting [9]) is at least 6.30.
With `CNC(=O)c1c(-c2ccc(F)cc2)oc2cc(-c3cc(COC)on3)c(OC(C)C)cc12` [Example 273, 2-(4-Fluoro-phenyl)-5-isopropoxy-6-(5-methoxymethyl-isoxazol-3-yl)-benzofuran-3-carboxylic acid methylamide], the pEC50 in experiment [1] (setting [4]) was above 6.00. Moreover, the pIC50 in experiment [2] (setting [5]) was at least 6.30.
As to `CNC(=O)c1c(-c2ccccc2)oc2cc(OC)ccc12` [Example 67, 6-Methoxy-2-phenyl-benzofuran-3-carboxylic acid methylamide], the pEC50 in experiment [1] (setting [8]) was above 5.00. The negative logarithm of the IC50 (pIC50) in experiment [2] (setting [9]) was 5.30 to 6.30.
In the case of `CNC(=O)c1c(-c2ccc(F)cc2)oc2cc(N(CCO)S(C)(=O)=O)c(OC(C)C)cc12` [Example 164, 2-(4-Fluoro-phenyl)-6-[(2-hydroxy-ethyl)-methanesulfonyl-amino]-5-isopropoxy-benzofuran-3-carboxylic acid methylamide], the pEC50 in experiment [1] (setting [3]) is above 5.00. In experiment [2] (HCV NS5B RdRp, BB7 genotype 1b), the pIC50 was at least 6.30.
Take `CNC(=O)c1c(-c2ccc(F)cc2)oc2cc(N(Cc3cc(C)on3)S(C)(=O)=O)c(OC(C)C)cc12` [Example 282, 2-(4-Fluoro-phenyl)-5-isopropoxy-6-[methanesulfonyl-(5-methyl-isoxazol-3-ylmethyl)-amino]-benzofuran-3-carboxylic acid methylamide]: in experiment [1] (setting [4]), the pEC50 is above 6.00. Moreover, the pIC50 in experiment [2] (setting [5]) is at least 6.30.
On to `CNC(=O)c1c(-c2ccc(F)cc2)oc2cc(-c3nccs3)c(OC(C)C)cc12` [Example 219, 2-(4-Fluoro-phenyl)-5-isopropoxy-6-thiazol-2-yl-benzofuran-3-carboxylic acid methylamide], for which, in experiment [1] (setting [6]), the pEC50 was above 5.00. In addition, the pIC50 in experiment [2] (setting [7]) was at least 6.30.
Consider `CNC(=O)c1c(-c2ccc(F)cc2)oc2cc(C(C)(C)NS(C)(=O)=O)c(OC)cc12` [Example 390, 2-(4-Fluoro-phenyl)-6-(1-methanesulfonylamino-1-methyl-ethyl)-5-methoxy-benzofuran-3-carboxylic acid methylamide], for which the pEC50 in experiment [1] (setting [10]) was above 5.00. The pIC50 in experiment [2] (setting [11]) was at least 6.30.
In the case of `CNC(=O)c1c(-c2ccc(F)cc2)oc2cc(N(C)S(C)(=O)=O)c(OCC(=O)O)cc12` [Example 386, [2-(4-Fluoro-phenyl)-6-(methanesulfonyl-methyl-amino)-3-methylcarbamoyl-benzofuran-5-yloxy]-acetic acid], the pEC50 in experiment [1] (setting [10]) is above 4.52. In experiment [2] (setting [11]), the pIC50 is at least 6.30.
Consider “6-(3-Amino-pyrrolidin-1-yl)-2-(4-fluoro-phenyl)-5-isopropoxy-2,3-dihydro-benzofuran-3-carboxylic acid methylamide [Example 15]”, for which, in experiment [1] (Huh-7-Clone A, NS5A ELISA, 72-hour incubation, ranges of EC50), the pEC50 is above 4.52. In addition, the pIC50 in experiment [2] (setting [9]) is 4.52 to 5.30.
Turning to `CNC(=O)c1c(-c2ccc(F)cc2)oc2cc(N3CCOCC3)c(OCC(C)=O)cc12` [Example 215, 2-(4-Fluoro-phenyl)-6-morpholin-4-yl-5-(2-oxo-propoxy)-benzofuran-3-carboxylic acid methylamide], in experiment [1] (setting [6]), the pEC50 is above 5.00. For the same molecule, the negative logarithm of the IC50 (pIC50) in experiment [2] (setting [7]) is 5.30 to 6.30.
